Where two headings read alike, the source gives them in different places.
Key:
[1] = system: HuTu 80 cells; experiment: Cell cycle analysis, propidium iodide flow cytometry; format: cell-based, human; conditions: HuTu 80, IC50, 48 h, compared with the control
Procedure: The DNA content and cell-cycle distribution after compounds 4b, 5b, 6a, and 8 IC50 concentrations were estimated by flow cytometry. After washing with PBS, treated cells were suspended in 150 μL of PBS, then 0.5 mL of phosphate-citrate buffer (0.05 M, pH 4.0) was added, and the suspension was incubated at room temperature for 5 min to facilitate the extraction of low-molecular-weight DNA. Following centrifugation, the cells were resuspended in 150 μL DNA staining solution (20 μg/mL propidium iodide, 200 μg/mL […]) and incubated in the CO2 incubator (37 °C for 30 min). The distribution of the cell cycle was determined by fluorescence analysis of HuTu 80 cells stained with propidium iodide using Guava easyCyte (Guava easyCyte).

[2] = system: Staphylococcus aureus ATCC 6538 P FDA 209P; experiment: Antimicrobial activity, serial microdilutions, Sa; format: cell-based; conditions: Staphylococcus aureus; for MIC: read-out: Minimum Inhibitory Concentration (MIC); for MBC: read-out: Minimum bactericidal and fungicidal concentrations (MBC, MFC)
How it was run: (§1)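 Compounds were serially diluted in broth: Mueller-Hinton for the bacterial strains, Sabouraud for the yeast. Each determination was done in triplicate.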

[3] = system: Bacillus cereus ATCC 10702 NCTC 8035; experiment: Antimicrobial activity, serial microdilutions, Bc; format: cell-based; parameters: key to Minimum bactericidal and fungicidal concentrations (MBC, MFC): – means non-active; conditions: for MIC: read-out: Minimum Inhibitory Concentration (MIC)
How it was run: as §1

[4] = system: Enterococcus faecalis ATCC 29212; experiment: Antimicrobial activity, serial microdilutions, Ef; format: cell-based; parameters: key to Minimum Inhibitory Concentration (MIC) / Minimum bactericidal and fungicidal concentrations (MBC, MFC): – means non-active; conditions: for MIC: ATCC29212, read-out: Minimum Inhibitory Concentration (MIC)
How it was run: as §1

[5] = system: MRSA-1; experiment: Antimicrobial activity, serial microdilutions, MRSA-1; format: cell-based, S. aureus; conditions: Staphylococcus aureus; for MIC: read-out: Minimum Inhibitory Concentration (MIC); for MBC: read-out: Minimum bactericidal and fungicidal concentrations (MBC, MFC)
How it was run: as §1

[6] = system: MRSA-2; experiment: Antimicrobial activity, serial microdilutions, MRSA-2; format: cell-based, S. aureus; conditions: Staphylococcus aureus; for MIC: read-out: Minimum Inhibitory Concentration (MIC); for MBC: read-out: Minimum bactericidal and fungicidal concentrations (MBC, MFC)
How it was run: as §1

[7] = system: Escherichia coli ATCC 25922; experiment: Antimicrobial activity, serial microdilutions, Ec; format: cell-based; parameters: key to Minimum Inhibitory Concentration (MIC) / Minimum bactericidal and fungicidal concentrations (MBC, MFC): – means non-active
How it was run: as §1

[8] = system: Pseudomonas aeruginosa ATCC 9027; experiment: Antimicrobial activity, serial microdilutions, Pa; format: cell-based; parameters: key to Minimum Inhibitory Concentration (MIC) / Minimum bactericidal and fungicidal concentrations (MBC, MFC): – means non-active
How it was run: as §1

[9] = system: Candida albicans ATCC 10231; experiment: Antimicrobial activity, serial microdilutions, Ca; format: cell-based; parameters: key to Minimum Inhibitory Concentration (MIC) / Minimum bactericidal and fungicidal concentrations (MBC, MFC): – means non-active
How it was run: as §1

[10] = system: M-HeLa; conditions: calculated relative to the cell line Chang liver (b)
[11] = system: MCF-7; conditions: calculated relative to the cell line Chang liver (b)
[12] = system: HuTu 80; conditions: calculated relative to the cell line Chang liver (b)
[13] = system: PANC-1; conditions: calculated relative to the cell line Chang liver (b)
[14] = system: A549; conditions: reference normal cell line not marked at the place (ns cells)
[15] = system: PC3
[16] = system: T98G
[17] = system: Hep G2; conditions: calculated relative to the cell line Chang liver (b)
[18] = system: SK-OV-3
[19] = system: DU-145
[20] = system: M-HeLa; experiment: cells; conditions: Homo sapiens, 48 h, read-out: Cytotoxic Effects (IC50)
[21] = system: MCF-7; experiment: cells; conditions: Homo sapiens, MCF7, 48 h, read-out: Cytotoxic Effects (IC50)
[22] = system: HuTu 80; experiment: cells; conditions: Homo sapiens, HuTu80, 48 h, read-out: Cytotoxic Effects (IC50)
[23] = system: PANC-1; experiment: cells; conditions: Homo sapiens, PANC-1, 48 h, read-out: Cytotoxic Effects (IC50)
[24] = system: A549; experiment: cells; conditions: Homo sapiens, A549, 48 h, read-out: Cytotoxic Effects (IC50)
[25] = system: T98G; experiment: cells; conditions: Homo sapiens, 48 h, read-out: Cytotoxic Effects (IC50)
[26] = system: Hep G2; experiment: cells; conditions: Homo sapiens, HepG2, 48 h, read-out: Cytotoxic Effects (IC50)
[27] = system: SK-OV-3; experiment: cells; conditions: Homo sapiens, SK-OV-3, 48 h, read-out: Cytotoxic Effects (IC50)
[28] = system: DU-145; experiment: cells; conditions: Homo sapiens, DU-145, 48 h, read-out: Cytotoxic Effects (IC50), DU-145, MTT assay, 48 h
[29] = reference normal cell line not marked at the place (ns cells)
[30] = calculated relative to the cell line Chang liver (b)

## CCCCCCCC[P+](N(CC)CC)(N(CC)CC)N(CC)CC [4b, Tris(diethylamino)(octyl)phosphonium iodide]
[1]
  effect on cell cycle (in words): significant delay of cells in the G0/G1 phase
[2]
  MIC: 15.6 ± 1.3 µM
  MBC: 31.3 ± 2.3 µM
[3]; Bacillus cereus, Bc
  MIC: 7.8 ± 0.7 µM
[3]; Bc
  Minimum bactericidal and fungicidal concentrations (MBC, MFC): –
[4]
  Minimum bactericidal and fungicidal concentrations (MBC, MFC): –
[4]; Enterococcus faecalis
  MIC: 250 ± 19 µM
[5]
  MIC: 15.6 ± 0.3 µM
  MBC: 500 ± 47 µM
[6]
  MIC: 15.6 ± 1.2 µM
  MBC: 125 ± 9 µM
[7]
  Minimum Inhibitory Concentration (MIC): –
  Minimum bactericidal and fungicidal concentrations (MBC, MFC): –
[8]
  Minimum Inhibitory Concentration (MIC): –
  Minimum bactericidal and fungicidal concentrations (MBC, MFC): –
[9]; Ca
  Minimum Inhibitory Concentration (MIC): –
  Minimum bactericidal and fungicidal concentrations (MBC, MFC): –
[10]
  selectivity index (SI): 2.2
[11]
  selectivity index (SI): 1.4
[12]
  selectivity index (SI): 1.3
[13]
  selectivity index (SI): 1.7
[14]
  selectivity index (SI): ns (ns—no selectivity)
[15]; [29]
  selectivity index (SI): ns (ns—no selectivity)
[16]; [29]
  selectivity index (SI): ns (ns—no selectivity)
[17]
  selectivity index (SI): 1.4
[18]; [29]
  selectivity index (SI): ns (ns—no selectivity)
[19]; [29]
  selectivity index (SI): ns (ns—no selectivity)
[20]
  IC50: 1800 ± 100 nM
[21]
  IC50: 2900 ± 200 nM
[22]
  IC50: 3200 ± 200 nM
[23]
  IC50: 2300 ± 100 nM
[24]
  IC50: 15400 ± 1200 nM
[25]
  IC50: 5900 ± 400 nM
[26]
  IC50: 2900 ± 200 nM
[27]
  IC50: 26300 ± 1800 nM
[28]
  IC50: 4200 ± 300 nM

## CCCCCCCCCC[P+](N(CC)CC)(N(CC)CC)N(CC)CC [4d, Decyltris(diethylamino)phosphonium iodide]
[2]
  MIC: 1.9 ± 0.1 µM
  MBC: 31.3 ± 2.5 µM
[3]; Bacillus cereus, Bc
  MIC: 0.9 ± 0.07 µM
[3]; Bacillus cereus, read-out: Minimum bactericidal and fungicidal concentrations (MBC, MFC)
  MBC: 250 ± 22 µM
[4]; Enterococcus faecalis
  MIC: 15.6 ± 1.3 µM
[4]; Enterococcus faecalis, ATCC29212, read-out: Minimum bactericidal and fungicidal concentrations (MBC, MFC)
  MBC: > 500 µM
[5]
  MIC: 0.9 ± 0.07 µM
  MBC: 62.5 ± 5.4 µM
[6]
  MIC: 1.9 ± 0.1 µM
  MBC: 250 ± 18 µM
[7]; Escherichia coli, ATCC25922, read-out: Minimum Inhibitory Concentration (MIC)
  MIC: 125 ± 9 µM
[7]; Escherichia coli, ATCC25922, read-out: Minimum bactericidal and fungicidal concentrations (MBC, MFC)
  MBC: 250 ± 19 µM
[8]; Pseudomonas aeruginosa, ATCC9027, read-out: Minimum Inhibitory Concentration (MIC)
  MIC: 500 ± 47 µM
[8]; Pseudomonas aeruginosa, ATCC9027, read-out: Minimum bactericidal and fungicidal concentrations (MBC, MFC)
  MBC: 500 ± 48 µM
[9]; Candida albicans, ATCC10231, read-out: Minimum Inhibitory Concentration (MIC)
  MIC: 125 ± 11 µM
[9]; Candida albicans, ATCC10231, read-out: Minimum bactericidal and fungicidal concentrations (MBC, MFC)
  MBC: 250 ± 18 µM
[10]
  selectivity index (SI): 7.1
[11]
  selectivity index (SI): 5.7
[12]
  selectivity index (SI): 4.3
[13]
  selectivity index (SI): 7.5
[14]
  selectivity index (SI): ns (ns—no selectivity)
[15]; [30]
  selectivity index (SI): 1.6
[16]; [30]
  selectivity index (SI): 6.7
[17]
  selectivity index (SI): 5.2
[18]; [30]
  selectivity index (SI): 1.2
[19]; [30]
  selectivity index (SI): 10
[20]
  IC50: 1700 ± 100 nM
[21]
  IC50: 2100 ± 200 nM
[22]
  IC50: 2800 ± 200 nM
[23]
  IC50: 1600 ± 100 nM
[24]
  IC50: 18400 ± 1300 nM
[25]
  IC50: 1800 ± 200 nM
[26]
  IC50: 2300 ± 100 nM
[27]
  IC50: 10000 ± 900 nM
[28]
  IC50: 1200 ± 100 nM
